{"source": "patent US7964598B2", "about": "(The J. David Gladstone Institutes, priority 1995, dated 2011)", "target": "T1, YFP-apoE3-CFP (Homo sapiens, UniProt P02649)", "T1 construct": "vector signal peptide (pFLAG-CMV3) (N); FLAG (N); expressed in transfected cells", "T1 sequence (P02649 19-317)": "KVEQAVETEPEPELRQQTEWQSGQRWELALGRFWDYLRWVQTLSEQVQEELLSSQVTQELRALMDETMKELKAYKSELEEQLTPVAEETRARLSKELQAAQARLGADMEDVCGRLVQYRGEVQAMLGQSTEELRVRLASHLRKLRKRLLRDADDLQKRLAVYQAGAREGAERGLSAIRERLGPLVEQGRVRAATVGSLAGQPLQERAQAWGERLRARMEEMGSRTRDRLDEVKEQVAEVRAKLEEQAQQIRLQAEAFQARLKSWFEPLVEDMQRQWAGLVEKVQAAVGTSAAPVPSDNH", "assay": "Cell-based FRET assay, YFP-apoE3-CFP", "from_the_text": "Xu et al. (2004) J. Biol. Chem. 279:25511-25516. FRET—the non-radioactive transfer of photon energy from an excited fluorophore (donor) to another fluorophore (acceptor)—occurs only when the donor and acceptor are in close proximity (<100 Å). Thus, this approach can be used to measure nanometer scale distances.\nXu et al. (2004) J. Biol. Chem. 279:25511-25516. The constructs are depicted schematically in FIG. 29.\nSince the emission spectrum of CFP (460-520 nm) overlaps with the excitation spectrum of YFP (480-520 nm), FLEXstation (Molecular Devices) can be used to measure FRET in living cells expressing YFP-apoE3-CFP or YFP-apoE4-CFP in a high throughput manner. […] Thus, the ratio of FRET to CFP emission in cells expressing YFP-apoE4-CFP is much higher than that in those expressing YFP-apoE3-CFP (FIG. 31). […] Since the FLEXstation can read FRET in both cells and the culture media treated without or with various small molecules, this assay allows one to know whether a small molecule affects apoE4 domain interaction only in the medium (“medium FRET”) or also inside the cell (“intracellular FRET”). In addition, after measurement of the intracellular FRET, the cells can be incubated further with MTT to determine the cytotoxicity of the compound. Thus, the cell-based FRET assay can simultaneously provide three sets of data-intracellular FRET, medium FRET, and cytotoxicity.\nQuantifying FRET in Transfected Neuro-2a Cells—Stably transfected Neuro-2a cells expressing YFP-apoE3-CFP or YFP-apoE4-CFP at similar levels were selected by fluorescence activated cell sorter (FACS). YFP and CFP images of transfected cells were acquired with the Meta Detector, and their fluorescence intensities were analyzed with the mounted computer. The FRET signal was calculated as the ratio of YFP to CFP fluorescence intensity under CFP excitation. For each YFP-apoE-CFP construct, the FRET signal was measured in at least 12 cells from different fields.\nQuantifying FRET in the Culture Medium—Neuro-2a cells stably expressing YFP-apoE3-CFP or YFP-apoE4-CFP and wildtype cells were grown in T175 flasks to 90% confluence and incubated with serum-free minimum essential medium containing N2 supplement for 24 h. The conditioned medium (20 ml/flask) was concentrated about 20-fold with Centriplus-YM-10 concentrators (Amicon, Bedford, Mass.), dialyzed against PBS, illuminated at the CFP excitation wavelength (430 nm), and scanned for emission spectrum. The FRET signal was calculated as the ratio of emission at 525 nm (YFP) to that at 475 nm (CFP). Conditioned medium from cells expressing apoE3-CFP or apoE4-CFP was used to determine baseline fluorescence in the absence of FRET.", "data": [{"molecule": "O=S(=O)([O-])c1ccc2c(c1)c(Nc1ccc(S(=O)(=O)O)cc1)cc1c2nc2ccccc2[n+]1-c1ccccc1", "note": "[GIND-25, azocarmine-G]", "values": [{"measurement": "ratio of FRET to CFP emission in cells expressing YFP-apoE3-CFP", "setting": "intracellular", "result": "none of these compounds altered significantly"}, {"measurement": "ratio of FRET to CFP emission in media of YFP-apoE3-CFP cells", "setting": "medium", "result": "none of these compounds altered significantly"}]}]}
